The text below walks through data of ChEMBL document CHEMBL1201862, “PubChem BioAssay data set” (2004).

Assay [1] deals with T1, Microphthalmia-associated transcription factor (Homo sapiens, UniProt O75030).
T1 sequence (O75030 whole entry): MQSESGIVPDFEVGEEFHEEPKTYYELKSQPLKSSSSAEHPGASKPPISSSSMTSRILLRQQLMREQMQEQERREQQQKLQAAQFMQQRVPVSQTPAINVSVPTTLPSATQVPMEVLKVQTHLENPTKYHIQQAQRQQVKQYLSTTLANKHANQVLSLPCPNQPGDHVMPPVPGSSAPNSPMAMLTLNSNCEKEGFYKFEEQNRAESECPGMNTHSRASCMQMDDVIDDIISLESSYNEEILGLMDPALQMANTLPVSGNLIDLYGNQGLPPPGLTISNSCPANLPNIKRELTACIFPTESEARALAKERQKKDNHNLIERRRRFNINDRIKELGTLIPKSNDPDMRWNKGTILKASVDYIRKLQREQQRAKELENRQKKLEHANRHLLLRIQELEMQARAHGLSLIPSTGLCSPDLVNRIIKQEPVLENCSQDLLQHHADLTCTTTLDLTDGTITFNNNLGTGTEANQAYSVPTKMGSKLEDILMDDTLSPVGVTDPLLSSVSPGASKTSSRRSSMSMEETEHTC
The assay is described as follows: reducers of TRPM1 reporter luminescence, concentration series – cell-based, SK-MEL-5, cherry-picked, set 3, MITF inhibitor project, dose response (AID 493073).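 Note: SK-MEL-5 melanoma cells with luciferase driven by the MITF target TRPM1 promoter.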 It counts as functional.

Assay [2] can be described thus: alpha-synuclein stem-loop luciferase translation blockers – H4 neuroglioma cells, luminescence, confirmation (AID 1988). The class given is functional, cell-based.
In assay [3] the target is Luciferin 4-monooxygenase (Photinus pyralis, UniProt P08659). Description: Counter Screen for Luciferase-based Assay Positives. [Related pubchem assays: 620, 618, 411 ]. In general terms: A counterscreen serves to expose hits that act by an unwanted route or on another target.
Assay [4] is described as follows: Luminescence Cell-Based Dose Response HTS to Identify Inhibitors of 5'UTR Stem-Loop Driven Prion Protein mRNA Translation in H4 Neuroglioblastoma Cells. [Related pubchem assays: 1827 (Project Summary), 1813 (Primary HTS)]. It counts as functional.
For a further assay, the target named is T2, Leucine aminopeptidase (Plasmodium falciparum 3D7, UniProt Q8IL11).
T2 sequence (Q8IL11 whole entry): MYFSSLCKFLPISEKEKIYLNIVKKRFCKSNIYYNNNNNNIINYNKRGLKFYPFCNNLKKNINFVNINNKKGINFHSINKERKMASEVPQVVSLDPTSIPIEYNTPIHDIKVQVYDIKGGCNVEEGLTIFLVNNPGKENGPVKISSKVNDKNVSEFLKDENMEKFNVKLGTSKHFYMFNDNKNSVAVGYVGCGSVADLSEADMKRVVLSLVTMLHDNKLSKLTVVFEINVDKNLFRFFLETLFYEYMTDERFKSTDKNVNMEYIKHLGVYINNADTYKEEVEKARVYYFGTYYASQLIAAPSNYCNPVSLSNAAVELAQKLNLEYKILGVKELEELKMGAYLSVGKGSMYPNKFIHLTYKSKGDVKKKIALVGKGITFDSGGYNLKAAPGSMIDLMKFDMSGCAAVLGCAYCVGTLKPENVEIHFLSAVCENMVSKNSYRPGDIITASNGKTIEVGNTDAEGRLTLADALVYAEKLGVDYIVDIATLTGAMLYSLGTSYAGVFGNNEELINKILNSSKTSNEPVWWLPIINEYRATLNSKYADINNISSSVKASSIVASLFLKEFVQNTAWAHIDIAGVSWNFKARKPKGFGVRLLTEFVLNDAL
Description: P. falciparum M17LAP inhibitors, primary screen, biochemical, fluorogenic H-Leu-NHMec substrate, 1536-well (AID 1619). It counts as functional.

The nature of assay [5]: Luminescence-based counterscreen assay for KLF5 inhibitors: dose response cell-based high throughput screening assay to identify cytotoxic compounds using the IEC-6 intestinal epithelial cell line. [Related pubchem assays: 1700 (Primary screen.), 1834 (Confirmation screen.), 1858 (Summary AID.), 1905 (Counterscreen.)]. The class given is functional.
Another assay deals with Jurkat. Description: blockers of NF-kB activation in T cells – Jurkat, luciferase reporter, luminescence, B- and T-cell, dose response (AID 489004).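 Note: NF-kB luciferase reporter Jurkat cells stimulated with PMA plus ionomycin.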 Particulars: Homo sapiens. The class given is functional, cell-based. (In a reporter assay the amount or activity of a reporter protein is the signal.)
The nature of assay [6]: HEK-293T viability loss, compound-treated – cell-based, uHTS hits, cytotoxicity control for B/T-cell NF-kB inhibitor project, dose response (AID 489019).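 Note: IC50 reflects cytotoxicity as loss of cell viability.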 It counts as functional.
The test system of a further assay is HT-1080. Description: HT1080 cell viability loss – fluorescence readout (AID 620). The following applies: Homo sapiens. It counts as functional, cell-based.
The target in assay [7] is Heat shock protein HSP 90-alpha (Homo sapiens, UniProt P07900). The assay is described as follows: Luminescence-based dose response biochemical high throughput screening assay for inhibitors of the Heat Shock Protein 90 (HSP90). [Related pubchem assays: 1831 (Summary AID.), 1846 (Confirmation screen.), 1789 (Primary screen.)].
Assay [8] deals with Glyceraldehyde-3-phosphate dehydrogenase (Homo sapiens, UniProt P04406).
Assay [9] can be described thus: luciferase reporter signal suppression in cells – H4 neuroglioma cells, luminescence, dose response (AID 1990). It counts as functional, cell-based.
Assay [10] addresses T3, Heat shock factor protein 1 (Mus musculus, UniProt P38532).
T3 sequence (P38532 whole entry): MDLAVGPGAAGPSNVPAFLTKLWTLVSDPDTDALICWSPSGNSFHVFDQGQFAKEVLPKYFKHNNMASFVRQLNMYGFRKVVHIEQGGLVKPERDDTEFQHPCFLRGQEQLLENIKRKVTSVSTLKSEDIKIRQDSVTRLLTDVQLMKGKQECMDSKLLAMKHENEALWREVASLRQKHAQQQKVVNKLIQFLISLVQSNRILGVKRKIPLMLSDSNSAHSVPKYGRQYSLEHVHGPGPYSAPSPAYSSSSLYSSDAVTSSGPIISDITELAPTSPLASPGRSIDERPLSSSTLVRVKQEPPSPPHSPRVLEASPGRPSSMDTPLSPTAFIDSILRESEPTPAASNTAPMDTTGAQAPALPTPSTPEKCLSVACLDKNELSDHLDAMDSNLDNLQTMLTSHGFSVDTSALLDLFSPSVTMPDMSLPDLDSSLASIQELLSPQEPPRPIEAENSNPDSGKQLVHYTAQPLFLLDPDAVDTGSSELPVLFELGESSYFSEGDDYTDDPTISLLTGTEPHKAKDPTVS
Description: decrease of HSF1-responsive luciferase luminescence – cell-based, NIH3T3, dose retest, confirmation (AID 2382).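 Note: NIH3T3 fibroblasts with HSF1-driven luciferase reporter stressed by proteasome inhibitor MG132; luminescence from HSF1-driven luciferase expression after 8 hours of MG132 stress.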 The class given is functional.

For a further assay, the system named is HEK293. Description: Fluorescence-based counterscreen for potentiators or agonists of NPY-Y2: cell-based high-throughput dose response assay to identify inhibitors of cyclic nucleotide gated ion channel (CNGC) activity. In this assay, the parental HEK293 cell line transfected with a cyclic-nucleotide gated ion channel (CNGC)-based cAMP sensor is used to measure inhibition of isoproterenol-induced CNGC activity by test compound. The class given is functional. Particulars: Homo sapiens.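 Note: stimulus is 1 µM isoproterenol at EC100 plus PDE inhibitor Ro 20-1724 at 25 µM.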

For assay [11], the target named is T4, Neuropeptide Y receptor type 2 (Homo sapiens, UniProt P49146).
T4 sequence (P49146 whole entry): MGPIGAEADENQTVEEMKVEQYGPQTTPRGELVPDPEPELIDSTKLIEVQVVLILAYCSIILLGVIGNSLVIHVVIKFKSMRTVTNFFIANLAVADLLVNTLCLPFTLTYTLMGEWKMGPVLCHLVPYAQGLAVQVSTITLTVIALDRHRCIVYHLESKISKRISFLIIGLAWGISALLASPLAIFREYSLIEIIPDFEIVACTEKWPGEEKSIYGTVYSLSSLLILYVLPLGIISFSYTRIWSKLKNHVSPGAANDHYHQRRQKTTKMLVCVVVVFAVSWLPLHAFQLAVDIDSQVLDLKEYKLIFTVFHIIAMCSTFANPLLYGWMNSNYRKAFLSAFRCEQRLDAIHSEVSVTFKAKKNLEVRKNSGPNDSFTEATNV
Description: Fluorescence-based cell-based high-throughput dose response assay for agonists of NPY-Y2. [Related pubchem assays: 1703 (Screening assay (CNGC inhibitors).), 1359 (Screening assay (NPY-Y2 potentiators or agonists).), 1304 (Screening assay (NPY-Y1 potentiators or agonists).), 1710 (Screening assay (NPY-Y2 agonists).), 1791 (Summary AID.)]. It counts as functional.

The target in assay [12] is T5, Neuropeptide Y receptor type 1 (Homo sapiens, UniProt P25929).
T5 sequence (P25929 whole entry): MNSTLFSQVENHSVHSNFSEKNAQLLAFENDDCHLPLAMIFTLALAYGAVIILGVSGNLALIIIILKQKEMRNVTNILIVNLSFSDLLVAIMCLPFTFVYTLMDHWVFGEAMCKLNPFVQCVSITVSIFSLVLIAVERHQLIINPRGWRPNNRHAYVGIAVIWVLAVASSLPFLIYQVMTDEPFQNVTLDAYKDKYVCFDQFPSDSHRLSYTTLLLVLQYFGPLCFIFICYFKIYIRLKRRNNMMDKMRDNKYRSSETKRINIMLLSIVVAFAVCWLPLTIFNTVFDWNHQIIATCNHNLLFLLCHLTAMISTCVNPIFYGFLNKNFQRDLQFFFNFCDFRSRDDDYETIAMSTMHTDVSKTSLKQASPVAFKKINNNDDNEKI
The assay is described as follows: Fluorescence-based counterscreen for agonists of NPY-Y2: cell-based high-throughput dose response assay for agonists of NPY-Y1. It counts as functional.

The structures appear in SMILES notation. Active and inactive are the calls of the source. Bounds are passed on as bounds.

Glyceraldehyde-3-phosphate dehydrogenase, sequence (P04406 whole entry): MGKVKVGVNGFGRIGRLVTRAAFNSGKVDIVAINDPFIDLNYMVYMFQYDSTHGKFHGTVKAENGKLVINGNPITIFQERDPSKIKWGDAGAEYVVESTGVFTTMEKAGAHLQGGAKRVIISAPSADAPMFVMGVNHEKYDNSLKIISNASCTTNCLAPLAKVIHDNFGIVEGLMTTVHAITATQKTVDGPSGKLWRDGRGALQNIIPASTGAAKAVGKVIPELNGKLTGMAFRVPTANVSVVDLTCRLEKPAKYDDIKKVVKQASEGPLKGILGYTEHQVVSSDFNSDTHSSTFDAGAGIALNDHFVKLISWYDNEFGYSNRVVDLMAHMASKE
Luciferin 4-monooxygenase, sequence (P08659 whole entry): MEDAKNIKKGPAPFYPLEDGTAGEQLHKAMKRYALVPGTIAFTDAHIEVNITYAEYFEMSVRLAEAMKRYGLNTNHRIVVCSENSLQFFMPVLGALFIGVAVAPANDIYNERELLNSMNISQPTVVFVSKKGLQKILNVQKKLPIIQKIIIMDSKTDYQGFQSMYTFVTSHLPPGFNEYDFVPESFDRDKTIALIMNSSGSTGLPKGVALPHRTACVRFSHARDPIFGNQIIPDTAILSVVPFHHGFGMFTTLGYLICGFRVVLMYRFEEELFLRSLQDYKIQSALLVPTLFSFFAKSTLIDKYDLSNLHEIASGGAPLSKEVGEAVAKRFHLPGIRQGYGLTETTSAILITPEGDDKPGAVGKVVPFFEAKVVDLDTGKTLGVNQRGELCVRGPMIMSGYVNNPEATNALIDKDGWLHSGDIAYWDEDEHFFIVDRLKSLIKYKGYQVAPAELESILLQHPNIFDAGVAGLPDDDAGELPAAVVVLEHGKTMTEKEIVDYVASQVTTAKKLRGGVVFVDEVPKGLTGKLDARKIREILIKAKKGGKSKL

For orientation: AC50 means the midpoint of the concentration-response curve, whichever way the signal moves. By EC50 is commonly meant the concentration at which the effect is half-maximal. Broadly, the IC50 is the concentration that gives 50% inhibition. Turning to `O=C(O)CSCC(=O)Nc1ccc(C2CCCCC2)cc1`, the AC50 in [1] is 2.12 µM (active). The EC50 was 2.2 µM (active) in assay [2]; 3.61 µM (active) in assay [3]; 0.395 µM (active) in assay [4]; > 50 µM (not active) with HT-1080; 0.101 µM (active) in assay [9]; 0.415 µM (active) in assay [10]. Further, the IC50 on Leucine aminopeptidase is 12.6 µM (active); in [5] it was > 39.8 µM (not active); with Jurkat, 0.26 µM (active); in [6] it was > 80 µM (inactive); in assay [7], > 60 µM (not active); in assay [8], > 100 µM (not active).

For the compound `COC(=O)/C(=C/c1cn(C(C)=O)c2ccccc12)[N+](=O)[O-]`, the EC50 is listed as 12.3 µM (not active) in the assay on HEK293, > 35.4 µM (not active) in assay [11] and > 35.4 µM (not active) in [12].
